Measured values: ChEMBL document CHEMBL2010697, “Fragment based drug discovery: practical implementation based on ¹⁹F NMR spectroscopy” (J Med Chem, 2012)
pKd: −log10 of the molar value.

Assays:
Beta-secretase 1 [1] = target: T1, Beta-secretase 1 (Homo sapiens, UniProt P56817); test: Binding affinity to BACE1 by surface plasmon resonance method
Beta-secretase 1 [2] = target: T1, Beta-secretase 1; test: Binding affinity to BACE1 by NMR-based differential chemical shift perturbation method

T1 sequence (P56817 whole entry): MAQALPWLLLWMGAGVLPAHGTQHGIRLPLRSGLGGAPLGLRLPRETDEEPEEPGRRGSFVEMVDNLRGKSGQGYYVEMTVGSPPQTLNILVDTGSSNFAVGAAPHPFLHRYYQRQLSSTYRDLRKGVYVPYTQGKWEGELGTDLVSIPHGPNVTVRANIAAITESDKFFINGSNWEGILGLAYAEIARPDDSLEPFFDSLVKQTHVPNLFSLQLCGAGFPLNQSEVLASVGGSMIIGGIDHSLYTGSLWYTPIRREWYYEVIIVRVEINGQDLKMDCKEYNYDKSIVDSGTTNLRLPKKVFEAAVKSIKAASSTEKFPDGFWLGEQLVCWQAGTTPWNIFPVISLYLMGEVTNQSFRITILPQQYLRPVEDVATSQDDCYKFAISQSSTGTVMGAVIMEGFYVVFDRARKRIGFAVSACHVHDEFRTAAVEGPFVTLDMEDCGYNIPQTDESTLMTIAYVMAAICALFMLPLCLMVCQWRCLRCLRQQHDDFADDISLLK

Row | Structure (SMILES) | pKd (Beta-secretase 1 [1]) | pKd (Beta-secretase 1 [2])
1 | NC1=Nc2ccccc2Sc2cccc(F)c21 | 3.49 | 3.40
2 | N=C(N)SCc1c(F)cccc1Cl | 3.52 | 3.46
3 | Fc1cccc(C2NCCc3sccc32)c1 (racemic) | < 2.70 | < 3.00
4 | Fc1cccc(Cl)c1CN1CCNCC1 | < 2.70 | < 3.00
5 | O=C(NC1CCCCC1)C(F)(F)F |  | < 3.00
6 | Cc1cc(N)nc2ccccc12 | 2.89 | 
7 | Nc1ccc2cc(C(F)(F)F)ccc2n1 | 2.41 | 
8 | Nc1cc(C(F)(F)F)c2ccccc2n1 | 2.54 | 
9 | Nc1ccc2cc(F)ccc2n1 | 2.89 | 3.00
10 | Nc1ccc2cc(-c3ccccc3C(F)(F)F)ccc2n1 | 3.70 | 3.70
11 | Nc1ccc2cc(-c3ccccc3F)ccc2n1 | 4.41 | 
12 | Cc1ccc2nc(N)ccc2c1 | 2.80 | 
